According to US20120101032A1, “NOVEL MACROCYCLIC INHIBITORS OF HEPATITIS C VIRUS REPLICATION” (priority 2010, published 2012):
Where two headings read alike, the source gives them in different places.

Assays:
NS3/NS4 complexes = NS3/NS4 complexes (Hepatitis C virus genotype 1a, UniProt P27958); experiment: biochemical
From the text: NS3-NS4 inhibition activity can be determined using known assay methods. For example, NS3/NS4 complexes may be formed and inhibitory concentrations of test compounds determined as described in U.S. Patent Application Publication Number 2007/0054842 paragraph numbers 1497-1509, which is incorporated herein by reference in its entirety. Similarly, hepatitis C replicon EC50 may be determined using known assay methods such as described in U.S. Patent Application Publication Number 2007/0054842 paragraph numbers 1510-1515, which is incorporated herein by reference in its entirety. Assays may be conducted at ambient temperature (23° C.) in assay buffer containing 50 mM Tris-HCl, pH 7.5, 15% glycerol, 0.6 mM Lauryldimethylamine Oxide (LDAO), 25 μM NS4A peptide, and 10 mM Dithiothreitol (DTT).

hepatitis C replicon = hepatitis C replicon EC50 assay; type: cell-based; details: Hepatitis C virus
From the text: NS3-NS4 inhibition activity can be determined using known assay methods.

[1] = NS3-NS4 activity, 23° C., pH 7.5, 25 μM NS4A peptide, read-out: IC50
[2] = hepatitis C replicon, read-out: EC50

NS3/NS4 complexes, sequence (P27958 1027-1657, one chain of several): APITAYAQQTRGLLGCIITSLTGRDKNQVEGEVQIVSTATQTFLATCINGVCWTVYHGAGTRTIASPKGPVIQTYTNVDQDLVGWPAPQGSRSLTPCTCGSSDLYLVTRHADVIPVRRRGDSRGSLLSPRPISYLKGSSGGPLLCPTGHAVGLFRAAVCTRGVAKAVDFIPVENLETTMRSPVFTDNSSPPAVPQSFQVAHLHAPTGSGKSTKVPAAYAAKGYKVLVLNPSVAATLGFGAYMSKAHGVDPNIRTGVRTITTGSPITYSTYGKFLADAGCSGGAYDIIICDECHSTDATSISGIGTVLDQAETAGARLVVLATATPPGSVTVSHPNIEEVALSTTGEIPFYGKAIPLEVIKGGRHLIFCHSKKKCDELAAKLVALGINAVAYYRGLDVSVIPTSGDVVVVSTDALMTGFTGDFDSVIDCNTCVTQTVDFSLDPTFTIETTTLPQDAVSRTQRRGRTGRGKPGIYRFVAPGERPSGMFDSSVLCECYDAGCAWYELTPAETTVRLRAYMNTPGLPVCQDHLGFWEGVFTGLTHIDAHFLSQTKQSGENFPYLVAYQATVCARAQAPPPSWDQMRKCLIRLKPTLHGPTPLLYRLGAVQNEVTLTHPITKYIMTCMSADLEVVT

SMILES	IC50 (NS3/NS4 complexes; [1]) [nM]	EC50 (hepatitis C replicon; [2]) [nM]	IC50 (NS3/NS4 complexes) [nM]	EC50 (hepatitis C replicon) [nM]
CC(C)n1c(O[C@@H]2C[C@H]3C(=O)N[C@]4(C(=O)NS(=O)(=O)C5(C)CC5)C[C@H]4/C=C\CCCCC[C@H](NC(=O)OC(C)(C)C)C(=O)N3C2)nc2c(-c3nc(Cc4ccc(-c5ccccc5)cc4)cs3)cccc21 [Compound 118]	< 10	< 10		
CC(C)n1c(O[C@@H]2C[C@H]3C(=O)N[C@]4(C(=O)NS(=O)(=O)N(C)C)C[C@H]4/C=C\CCCCC[C@H](NC(=O)OC(C)(C)C)C(=O)N3C2)nc2c(-c3nc(-c4ccc(C(F)(F)F)cc4)cs3)cccc21 [Compound 141]	< 10	> 100		
C#CC1(S(=O)(=O)NC(=O)[C@@]23C[C@H]2/C=C\CCCCC[C@H](NC(=O)OC(C)(C)C)C(=O)N2C[C@H](Oc4nc5c(-c6nc(C7CCCCC7)cs6)cccc5n4C(C)C)C[C@H]2C(=O)N3)CC1 [Compound 188]			< 10	< 10
CC(C)n1c(O[C@@H]2C[C@H]3C(=O)N[C@]4(C(=O)NS(=O)(=O)C5(C)CC5)C[C@H]4/C=C\CCCCC[C@H](NC(=O)O[C@@H]4C[C@@H]5C[C@@H]5C4)C(=O)N3C2)nc2c(-c3nc(Cc4ccccc4)cs3)cccc21 [Compound 166]	< 10	< 10		
CC(C)c1csc(-c2cc3c(c(O[C@@H]4C[C@H]5C(=O)N[C@]6(C(=O)NS(=O)(=O)C7(C)CC7)C[C@H]6/C=C\CCCCC[C@H](NC(=O)OC(C)(C)C)C(=O)N5C4)n2)CCCC3)n1 [Compound 405]	< 10	> 100		
CC(C)n1c(O[C@@H]2C[C@H]3C(=O)N[C@]4(C(=O)NS(=O)(=O)C5(C)CC5)C[C@H]4/C=C\CCCCC[C@H](NC(=O)OC(C)(C)C)C(=O)N3C2)nc2c(-c3nc(-c4ccc(C(C)(C)C)cc4)cs3)cccc21 [Compound 113]	< 10	10 to 100		
CC(C)n1c(O[C@@H]2C[C@H]3C(=O)N[C@]4(C(=O)NS(=O)(=O)N(C)C)C[C@H]4/C=C\CCCCC[C@H](NC(=O)OC(C)(C)C)C(=O)N3C2)nc2c(-c3nc(Cc4cccc(Br)c4)cs3)cccc21 [Compound 153]	< 10	10 to 100		
CC#CC1(S(=O)(=O)NC(=O)[C@@]23C[C@H]2/C=C\CCCCC[C@H](NC(=O)OC(C)(C)C)C(=O)N2C[C@H](Oc4nc5c(-c6nc(C7CCCCC7)cs6)cccc5n4C(C)C)C[C@H]2C(=O)N3)CC1 [Compound 189]	< 10	< 10		
CC(C)(C)OC(=O)N[C@H]1CCCCC/C=C\[C@@H]2C[C@@]2(C(=O)NS(=O)(=O)C2(C)CC2)NC(=O)[C@@H]2C[C@@H](Oc3nc(-c4ccccc4)cc4c3CCCC4)CN2C1=O [Compound 404]	< 10	> 100		
CC(C)n1c(O[C@@H]2C[C@H]3C(=O)N[C@]4(C(=O)NS(=O)(=O)N(C)C)C[C@H]4/C=C\CCCCC[C@H](N)C(=O)N3C2)nc2c(-c3csc(N4CCCCC4)n3)cccc21 [Compound 169]	< 10	> 100		
CC(C)n1c(O[C@@H]2C[C@H]3C(=O)N[C@]4(C(=O)NS(=O)(=O)C5(C)CC5)C[C@H]4/C=C\CCCCC[C@H](NC(=O)OC(C)(C)C)C(=O)N3C2)nc2c(-c3nc(-c4ccc(F)c(C(F)(F)F)c4)cs3)cccc21 [Compound 109]	< 10	10 to 100		
CC(C)n1c(O[C@@H]2C[C@H]3C(=O)N[C@]4(C(=O)NS(=O)(=O)N(C)C)C[C@H]4/C=C\CCCCC[C@H](NC(=O)OC(C)(C)C)C(=O)N3C2)nc2c(-c3nc(-c4ccc(OC(F)(F)F)cc4)cs3)cccc21 [Compound 136]	< 10	> 100		
CC(C)n1c(O[C@@H]2C[C@H]3C(=O)N[C@]4(C(=O)NS(=O)(=O)N(C)C)C[C@H]4/C=C\CCCCC[C@H](NC(=O)OC(C)(C)C)C(=O)N3C2)nc2c(-c3nc(-c4cccc(F)c4)cs3)cccc21 [Compound 133]	< 10	10 to 100		
CC(C)n1c(O[C@@H]2C[C@H]3C(=O)N[C@]4(C(=O)NS(=O)(=O)C5(C)CC5)C[C@H]4/C=C\CCCCC[C@H](NC(=O)OC(C)(C)C)C(=O)N3C2)nc2c(-c3nc(-c4cccc(Cl)c4)cs3)cccc21 [Compound 101]	< 10	10 to 100		
CC(C)n1c(O[C@@H]2C[C@H]3C(=O)N[C@]4(C(=O)NS(=O)(=O)N(C)C)C[C@H]4/C=C\CCCCC[C@H](NC(=O)OC(C)(C)C)C(=O)N3C2)nc2c(-c3nc(-c4ccc5c(c4)OCCO5)cs3)cccc21 [Compound 142]	< 10	10 to 100		
CC(C)n1c(O[C@@H]2C[C@H]3C(=O)N[C@]4(C(=O)NS(=O)(=O)C5(C)CC5)C[C@H]4/C=C\CCCCC[C@H](NC(=O)OC(C)(C)C)C(=O)N3C2)nc2c(-c3nc(-c4ccc(Br)cc4)cs3)cccc21 [Compound 106]	< 10	> 100		
CC(C)n1c(O[C@@H]2C[C@H]3C(=O)N[C@]4(C(=O)NS(=O)(=O)C5(C)CC5)C[C@H]4/C=C\CCCCC[C@H](N)C(=O)N3C2)nc2c(-c3nc(C(F)(F)F)cs3)cccc21 [Compound 175]	< 10	10 to 100		

SMILES	IC50 (NS3/NS4 complexes; [1]) [nM]	EC50 (hepatitis C replicon; [2]) [nM]	IC50 (NS3/NS4 complexes) [nM]	EC50 (hepatitis C replicon) [nM]
Cc1cccc(Cc2csc(-c3cccc4c3nc(O[C@@H]3C[C@H]5C(=O)N[C@]6(C(=O)NS(=O)(=O)N(C)C)C[C@H]6/C=C\CCCCC[C@H](NC(=O)OC(C)(C)C)C(=O)N5C3)n4C(C)C)n2)c1 [Compound 144]	< 10	< 10		
CC(C)n1c(O[C@@H]2C[C@H]3C(=O)N[C@]4(C(=O)NS(=O)(=O)C5(C)CC5)C[C@H]4/C=C\CCCCC[C@H](NC(=O)OC4CCCC4)C(=O)N3C2)nc2c(-c3nc(Cc4ccccc4)cs3)cccc21 [Compound 165]	< 10	< 10		
CC(C)n1c(O[C@@H]2C[C@H]3C(=O)N[C@]4(C(=O)NS(=O)(=O)C5CC5)C[C@H]4/C=C\CCCCC[C@H](N)C(=O)N3C2)nc2c(-c3nc(C4CCCCC4)cs3)cccc21 [Compound 173]	< 10	> 100		
CC(C)n1c(O[C@@H]2C[C@H]3C(=O)N[C@]4(C(=O)NS(=O)(=O)C5(C)CC5)C[C@H]4/C=C\CCCCC[C@H](NC(=O)OC(C)(C)C)C(=O)N3C2)nc2c(-c3nc(Cc4cccc(C(F)(F)F)c4)cs3)cccc21 [Compound 119]	< 10	10 to 100		
CC(C)n1c(O[C@@H]2C[C@H]3C(=O)N[C@]4(C(=O)NS(=O)(=O)N(C)C)C[C@H]4/C=C\CCCCC[C@H](NC(=O)OC(C)(C)C)C(=O)N3C2)nc2c(-c3cncnc3)cccc21 [Compound 161]	< 10	< 10		
CC(C)n1c(O[C@@H]2C[C@H]3C(=O)N[C@]4(C(=O)NS(=O)(=O)C5(C)CC5)C[C@H]4/C=C\CCCCC[C@H](NC(=O)OC(C)(C)C)C(=O)N3C2)nc2c(-c3nc(C(F)(F)F)cs3)cccc21 [Compound 174]	< 10	< 10		
CC(C)c1ccc(Cc2csc(-c3cccc4c3nc(O[C@@H]3C[C@H]5C(=O)N[C@]6(C(=O)NS(=O)(=O)N(C)C)C[C@H]6/C=C\CCCCC[C@H](NC(=O)OC(C)(C)C)C(=O)N5C3)n4C(C)C)n2)cc1 [Compound 148]	< 10	10 to 100		
CC(C)c1csc(-c2cc(O[C@@H]3C[C@H]4C(=O)N[C@]5(C(=O)NS(=O)(=O)C6(C)CC6)C[C@H]5/C=C\CCCCC[C@H](NC(=O)OC(C)(C)C)C(=O)N4C3)c3c(n2)CCCC3)n1 [Compound 406]	< 10	< 10		
COc1cccc(Cc2csc(-c3cccc4c3nc(O[C@@H]3C[C@H]5C(=O)N[C@]6(C(=O)NS(=O)(=O)C7(C)CC7)C[C@H]6/C=C\CCCCC[C@H](NC(=O)OC(C)(C)C)C(=O)N5C3)n4C(C)C)n2)c1 [Compound 123]	< 10	< 10		
CC(C)n1c(O[C@@H]2C[C@H]3C(=O)N[C@]4(C(=O)NS(=O)(=O)N(C)C)C[C@H]4/C=C\CCCCC[C@H](NC(=O)OC(C)(C)C)C(=O)N3C2)nc2c(-c3cscn3)cccc21 [Compound 163]	< 10	< 10		
CC(C)n1c(O[C@@H]2C[C@H]3C(=O)N[C@]4(C(=O)NS(=O)(=O)N(C)C)C[C@H]4/C=C\CCCCC[C@H](NC(=O)OC(C)(C)C)C(=O)N3C2)nc2c(-c3nc(Cc4ccc(-c5ccccc5)cc4)cs3)cccc21 [Compound 154]	< 10	10 to 100		
CC(C)n1c(O[C@@H]2C[C@H]3C(=O)N[C@]4(C(=O)NS(=O)(=O)C5(C)CC5)C[C@H]4/C=C\CCCCC[C@H](NC(=O)OC(C)(C)C)C(=O)N3C2)nc2c(-c3nc(C4CCNCC4)cs3)cccc21 [Compound 182]			< 10	10 to 100
CC(C)n1c(O[C@@H]2C[C@H]3C(=O)N[C@]4(C(=O)NS(=O)(=O)N(C)C)C[C@H]4/C=C\CCCCC[C@H](NC(=O)OC(C)(C)C)C(=O)N3C2)nc2c(-c3nc(-c4ccc(F)cc4F)cs3)cccc21 [Compound 139]	< 10	10 to 100		
CC(C)n1c(O[C@@H]2C[C@H]3C(=O)N[C@]4(C(=O)NS(=O)(=O)C5(C)CC5)C[C@H]4/C=C\CCCCC[C@H](NC(=O)OC(C)(C)C)C(=O)N3C2)nc2c(-c3nc(-c4ccc(Cl)c(Cl)c4)cs3)cccc21 [Compound 107]	< 10	10 to 100		
CC(C)n1c(O[C@@H]2C[C@H]3C(=O)N[C@]4(C(=O)NS(=O)(=O)C5CC5)C[C@H]4/C=C\CCCCC[C@H](NC(=O)OC(C)(C)C)C(=O)N3C2)nc2c(-c3nc(C4CCN(C)CC4)cs3)cccc21 [Compound 184]	< 10	< 10		
COc1ccccc1Cc1csc(-c2cccc3c2nc(O[C@@H]2C[C@H]4C(=O)N[C@]5(C(=O)NS(=O)(=O)C6(C)CC6)C[C@H]5/C=C\CCCCC[C@H](NC(=O)OC(C)(C)C)C(=O)N4C2)n3C(C)C)n1 [Compound 115]	< 10	< 10		
